US20210369853A1, “TARGETED PROTEASE DEGRADATION PLATFORM” (EUBULUS BIOTHERAPEUTICS INC., priority 2018, published 2021)
Where two headings read alike, the source gives them in different places.

Experiments:
Type in all cases: cell-based
Human Colon Cancer HT-29 = test: Cell proliferation experiment (Alarm blue, 72 h, EC50); details: Homo sapiens; HT-29 cells
Summary of the method: (§1)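 Single-cell suspensions from log-phase cultures are plated, compound in complete medium is added at 5-fold dilution steps (two replicates each), and cells grow for 72 h. Viability is then measured as Alamar blue fluorescence, giving EC50 by sigmoidal fitting.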

[1] = test system: Human Glioma Cells U-87 MG; test: as above; details: Homo sapiens; U-87MG cells
Summary of the method: as §1

[2] = test system: Human Monocytic Leukemia MV4-11; test: as above; details: Homo sapiens
Summary of the method: as §1

[3] = test system: Human Small Cell Lung Cancer NCI-H82; test: as above; details: Homo sapiens, NCI-H82; NCIH82 cells
Summary of the method: as §1

BRD4 = biological target: T1, BRD4 (Homo sapiens, UniProt O60885); test: Western blot, protein degradation (DC50); details: 6 h, read-out: BRD4 DC50 (6 h)
T1 construct: endogenous in cells
Summary of the method: (§2)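 Cells treated with compound, lysed in RIPA and resolved by SDS-PAGE (4%-12%); PVDF blots probed with primary antibody overnight at 4° C, then secondary antibody, and developed with ECL. Band intensities quantified by densitometry to give degradation.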

PLK1 = biological target: T2, PLK1 (Homo sapiens, UniProt P53350); test: Western blot, protein degradation (DC50); details: 6 h, read-out: PLK1 DC50 (6 h)
T2 construct: endogenous in cells
Summary of the method: as §2

Daudi = test: Cell proliferation experiment (EC50), Daudi; details: Homo sapiens; Daudi cells
[4] = test system: Human Acute Myelomonocytic Leukemia HL-60; test: Cell proliferation experiment (Alarm blue, 72 h, EC50); details: HL-60 cells
Summary of the method: as §1

HUVEC [5] = test: Cell proliferation experiment (EC50), HUVEC; details: Homo sapiens
PBMC [6] = test: Cell proliferation experiment (EC50), PBMC
HUVEC [7] = test: Cell proliferation experiment (EC50), HUVEC; details: Homo sapiens; remark: listed apart in the source
PBMC [8] = test: Cell proliferation experiment (EC50), PBMC; remark: listed apart in the source
[9] = test system: Human Colon Cancer HCT-116; test: Cell proliferation experiment (Alarm blue, 72 h, EC50); details: Homo sapiens, HCT-116; HCT116 cells
Summary of the method: as §1

HUVEC [10] = test: Cell proliferation experiment (EC50), HUVEC; details: Homo sapiens; remark: listed apart in the source
PBMC [11] = test: Cell proliferation experiment (EC50), PBMC; remark: listed apart in the source

T2 sequence (P53350 whole entry): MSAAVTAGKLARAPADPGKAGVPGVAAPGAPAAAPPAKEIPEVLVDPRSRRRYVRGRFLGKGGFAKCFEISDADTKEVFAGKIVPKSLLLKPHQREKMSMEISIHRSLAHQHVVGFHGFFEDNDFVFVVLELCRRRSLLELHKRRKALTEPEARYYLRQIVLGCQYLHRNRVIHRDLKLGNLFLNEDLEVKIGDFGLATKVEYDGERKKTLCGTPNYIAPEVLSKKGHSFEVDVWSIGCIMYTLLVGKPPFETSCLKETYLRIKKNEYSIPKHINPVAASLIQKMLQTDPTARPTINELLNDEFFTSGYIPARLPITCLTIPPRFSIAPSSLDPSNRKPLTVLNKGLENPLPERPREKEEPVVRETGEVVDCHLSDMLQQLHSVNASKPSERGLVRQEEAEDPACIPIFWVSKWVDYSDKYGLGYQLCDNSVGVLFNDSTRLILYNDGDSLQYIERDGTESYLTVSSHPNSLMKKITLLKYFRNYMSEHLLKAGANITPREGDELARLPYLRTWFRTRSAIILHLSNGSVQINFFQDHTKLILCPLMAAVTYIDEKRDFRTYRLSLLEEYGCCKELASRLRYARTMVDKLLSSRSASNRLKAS

## CC[C@@H]1C(=O)N(C)c2cnc(Nc3ccc(C(=O)NCCOCCOCCOCCOCCNCC#Cc4cccc5c4CN(C4CCC(=O)NC4=O)C5=O)cc3OC)nc2N1C1CCCC1 (stereo partly drawn) [UB-180844]
Human Colon Cancer HT-29
  EC50: 100 to 1000 nM
[1]
  EC50: 100 to 1000 nM
[2]; MV4-11, MV4;11 cells
  EC50: < 10 nM
[3]
  EC50: 100 to 1000 nM
BRD4
  DC50: 10 to 100 nM
PLK1
  DC50: 10 to 100 nM
Daudi
  EC50: 100 to 1000 nM

## CC[C@@H]1C(=O)N(C)c2cnc(Nc3ccc(C(=O)NCCCC[C@@H](N)C(=O)Nc4cccc5c4CN(C4CCC(=O)NC4=O)C5=O)cc3OC)nc2N1C1CCCC1 (stereo partly drawn) [UB-180855]
Human Colon Cancer HT-29
  EC50: 100 to 1000 nM
[1]
  EC50: 100 to 1000 nM
[2]; MV4-11, MV4;11 cells
  EC50: 100 to 1000 nM
[3]
  EC50: 100 to 1000 nM
Daudi
  EC50: 100 to 1000 nM

## CC[C@@H]1C(=O)N(C)c2cnc(Nc3ccc(C(=O)NC4CCN(CCOCCN(CCO)CC(=O)Nc5cccc6c5CN(C5CCC(=O)NC5=O)C6=O)CC4)cc3OC)nc2N1C1CCCC1 (stereo partly drawn) [UB-180849]
Human Colon Cancer HT-29
  EC50: 100 to 1000 nM
[1]
  EC50: 100 to 1000 nM
[2]; MV4-11, MV4;11 cells
  EC50: 100 to 1000 nM
[3]
  EC50: 100 to 1000 nM
Daudi
  EC50: 100 to 1000 nM

## CC[C@@H]1C(=O)N(C)c2cnc(Nc3ccc(C(=O)NCCOCCOCCNCC#Cc4cccc5c4CN(C4CCC(=O)NC4=O)C5=O)cc3OC)nc2N1C1CCCC1 (stereo partly drawn) [UB-180845]
Human Colon Cancer HT-29
  EC50: 100 to 1000 nM
[1]
  EC50: 100 to 1000 nM
[2]; MV4-11, MV4;11 cells
  EC50: < 10 nM
[3]
  EC50: 100 to 1000 nM
BRD4
  DC50: < 10 nM
Daudi
  EC50: 100 to 1000 nM

## CC[C@@H]1C(=O)N(C)c2cnc(Nc3ccc(C(=O)NCc4cn(CCN(C)CCC(=O)Nc5cccc6c5CN(C5CCC(=O)NC5=O)C6=O)nn4)cc3OC)nc2N1C1CCCC1 (stereo partly drawn) [UB-180848]
Human Colon Cancer HT-29
  EC50: 100 to 1000 nM
[1]
  EC50: 100 to 1000 nM
[2]; MV4-11, MV4;11 cells
  EC50: < 10 nM
[3]
  EC50: 100 to 1000 nM
Daudi
  EC50: 100 to 1000 nM

## O=C1CCC(N2Cc3c(NC(=O)CCOCCOCCOCCNCCOCCNC(=O)[C@]4(Cc5cccc(Nc6nccs6)n5)CC[C@@H](Oc5cccc(Cl)c5F)CC4)cccc3C2=O)C(=O)N1 (stereo partly drawn) [UB-180804]
[4]
  EC50: > 1000 nM
[2]; MV4-11, MV4;11 cells
  EC50: 100 to 1000 nM
HUVEC [5]
  EC50: > 1000 nM
PBMC [6]
  EC50: > 1000 nM

## CC[C@@H]1C(=O)N(C)c2cnc(Nc3ccc(C(=O)NCCOCCOCCOCCNCCCc4cccc5c4CN(C4CCC(=O)NC4=O)C5=O)cc3OC)nc2N1C1CCCC1 (stereo partly drawn) [UB-180847]
Human Colon Cancer HT-29
  EC50: 100 to 1000 nM
[1]
  EC50: 100 to 1000 nM
[2]; MV4-11, MV4;11 cells
  EC50: 100 to 1000 nM
[3]
  EC50: 100 to 1000 nM
Daudi
  EC50: 100 to 1000 nM

## CC[C@@H]1C(=O)N(C)c2cnc(Nc3ccc(C(=O)NCCOCCNCCCCCCC(=O)Nc4cccc5c4CN(C4CCC(=O)NC4=O)C5=O)cc3OC)nc2N1C1CCCC1 (stereo partly drawn) [UB-180655]
[2]; MV4;11 cells
  EC50: 10 to 100 nM
BRD4; western blot
  DC50: < 10 nM
PLK1; western blot
  DC50: 100 to 1000 nM
HUVEC [7]
  EC50: > 1000 nM
PBMC [8]
  EC50: > 1000 nM

## O=C1CCC(N2Cc3c(NC(=O)CCOCCOCCOCCNC(=O)[C@]4(Cc5cccc(Nc6nccs6)n5)CC[C@@H](Oc5cccc(Cl)c5F)CC4)cccc3C2=O)C(=O)N1 (stereo partly drawn) [UB-180581]
[4]
  EC50: 100 to 1000 nM
[9]
  EC50: > 1000 nM
[2]; MV4-11, MV4;11 cells
  EC50: 10 to 100 nM
PLK1
  DC50: < 10 nM
HUVEC [10]
  EC50: > 1000 nM
PBMC [11]
  EC50: > 1000 nM
